According to the supplement of paper PMC11451515:

Columns and labels:
Conditions in all cases: 48 h
[1] = test system: NOMO1; assay: AUC of viability dose-response curve (% viability x log10 dose units); higher = less sensitive
In short: (§1)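 Leukemia cells adapted to each medium were seeded in 1536-well plates (500 or 1000 cells/well) and given library compounds in DMSO for 48 h at 37°C. The 11 threefold doses spanned 47 μM to 0.79 nM, and CellTiter-Glo One luminescence was normalised per plate to DMSO and cell-free wells before four-parameter log-logistic fitting on log10 dose. Area under the curve was integrated with the trapezoidal rule, scaling curves above full viability and removing curves that failed quality control.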

[2] = test system: P12-Ichikawa; assay: as above
In short: as §1

[3] = test system: SEM cells; assay: as above
In short: as §1

[4] = test system: NOMO1; assay: cell viability relative to DMSO control; higher = less cytotoxic
In short: (§2)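 Viability, reported as a per-plate percentage of DMSO wells with cell-free wells as background, came from CellTiter-Glo One luminescence. Reading took place after 48 h at 37°C. Before that, NOMO1 or SEM (500 cells/well) or P12-Ichikawa (1000 cells/well) leukemia cells, adapted for at least four passages in each medium, were seeded in 1536-well plates (5 μl) and pin-dosed with library compounds in DMSO, 47 μM to 0.79 nM over 11 threefold points.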

[5] = test system: P12-Ichikawa; assay: as above
In short: as §2

[6] = test system: SEM cells; assay: as above
In short: as §2

C=CC(=O)Nc1cc(NC(=O)c2ccc(C)c(NC(=O)c3ccno3)c2)cc(C(F)(F)F)c1
AUC of viability dose-response curve
Conditions	[1]	[2]	[3]
HPLM + 10% dialyzed FBS	431	459	423
RPMI 5 mM glucose + 10% FBS	457	454	451
RPMI 5 mM glucose + 10% dialyzed FBS	467	452	438

C[C@@H]1CCO[C@H]2CN\3/C=C(/C(=O)NCC4=C(F)C=C(F)C=C4)C(=O)\C(=C3C(=O)N12)O
cell viability [%]
Conditions	[4]	[5]	[6]
HPLM + 10% dialyzed FBS, 0.000781 µM	107	108	82.2
HPLM + 10% dialyzed FBS, 0.00234 µM	103	109	104
HPLM + 10% dialyzed FBS, 0.00702 µM	117	103	85
HPLM + 10% dialyzed FBS, 0.0211 µM	116	109	104
HPLM + 10% dialyzed FBS, 0.0632 µM	109	106	73.4
HPLM + 10% dialyzed FBS, 0.19 µM	109	105	91.6
HPLM + 10% dialyzed FBS, 0.569 µM	101	103	105
HPLM + 10% dialyzed FBS, 1.71 µM	90.6	96.5	103
HPLM + 10% dialyzed FBS, 5.12 µM	105	103	104
HPLM + 10% dialyzed FBS, 15.4 µM	102	104	91.5
HPLM + 10% dialyzed FBS, 46.1 µM	108	93.5	85.3
RPMI 5 mM glucose + 10% FBS, 0.000781 µM	87.6	99.3	100
RPMI 5 mM glucose + 10% FBS, 0.00234 µM	91.1	99.5	95.2
RPMI 5 mM glucose + 10% FBS, 0.00702 µM	110	106	99.6
RPMI 5 mM glucose + 10% FBS, 0.0211 µM	88.7	105	98.5
RPMI 5 mM glucose + 10% FBS, 0.0632 µM	92.6	101	44.4
RPMI 5 mM glucose + 10% FBS, 0.19 µM	88.5	104	111
RPMI 5 mM glucose + 10% FBS, 0.569 µM	84.5	111	104
RPMI 5 mM glucose + 10% FBS, 1.71 µM	102	96.3	112
RPMI 5 mM glucose + 10% FBS, 5.12 µM	86.3	93.9	107
RPMI 5 mM glucose + 10% FBS, 15.4 µM	95.4	91.9	85.8
RPMI 5 mM glucose + 10% FBS, 46.1 µM	93.9	74	88.1
RPMI 5 mM glucose + 10% dialyzed FBS, 0.000781 µM	90.3	105	93.4
RPMI 5 mM glucose + 10% dialyzed FBS, 0.00234 µM	82	97.1	98.7
RPMI 5 mM glucose + 10% dialyzed FBS, 0.00702 µM	106	103	95.2
RPMI 5 mM glucose + 10% dialyzed FBS, 0.0211 µM	96.9	97.9	96.3
RPMI 5 mM glucose + 10% dialyzed FBS, 0.0632 µM	99.6	101	99.1
RPMI 5 mM glucose + 10% dialyzed FBS, 0.19 µM	85.8	95.6	100
RPMI 5 mM glucose + 10% dialyzed FBS, 0.569 µM	103	98.7	107
RPMI 5 mM glucose + 10% dialyzed FBS, 1.71 µM	98.4	93.6	99.3
RPMI 5 mM glucose + 10% dialyzed FBS, 5.12 µM	95.5	97.7	94.6
RPMI 5 mM glucose + 10% dialyzed FBS, 15.4 µM	87.1	86.5	96.7
RPMI 5 mM glucose + 10% dialyzed FBS, 46.1 µM	96.2	82.1	86.6

AUC of viability dose-response curve
Conditions	[1]	[2]	[3]
HPLM + 10% dialyzed FBS	458	456	447
RPMI 5 mM glucose + 10% FBS	442	460	454
RPMI 5 mM glucose + 10% dialyzed FBS	452	459	465

O=C(c1ccccc1)c1ccc2n1CCC2C(=O)O (centres undefined)
cell viability [%]
Conditions	[4]	[5]	[6]
HPLM + 10% dialyzed FBS, 0.000781 µM	–	113	117
HPLM + 10% dialyzed FBS, 0.00234 µM	–	111	118
HPLM + 10% dialyzed FBS, 0.00702 µM	–	114	104
HPLM + 10% dialyzed FBS, 0.0211 µM	–	111	107
HPLM + 10% dialyzed FBS, 0.0632 µM	–	112	114
HPLM + 10% dialyzed FBS, 0.19 µM	–	106	113
HPLM + 10% dialyzed FBS, 0.569 µM	–	109	112
HPLM + 10% dialyzed FBS, 1.71 µM	–	91.7	113
HPLM + 10% dialyzed FBS, 5.12 µM	–	75.8	81.9
HPLM + 10% dialyzed FBS, 15.4 µM	–	64.6	67.8
HPLM + 10% dialyzed FBS, 46.1 µM	–	71.5	77.6
RPMI 5 mM glucose + 10% FBS, 0.000781 µM	121	127	–
RPMI 5 mM glucose + 10% FBS, 0.00234 µM	113	117	–
RPMI 5 mM glucose + 10% FBS, 0.00702 µM	125	124	–
RPMI 5 mM glucose + 10% FBS, 0.0211 µM	130	119	–
RPMI 5 mM glucose + 10% FBS, 0.0632 µM	108	120	–
RPMI 5 mM glucose + 10% FBS, 0.19 µM	122	113	–
RPMI 5 mM glucose + 10% FBS, 0.569 µM	120	117	–
RPMI 5 mM glucose + 10% FBS, 1.71 µM	110	96.3	–
RPMI 5 mM glucose + 10% FBS, 5.12 µM	111	84.5	–
RPMI 5 mM glucose + 10% FBS, 15.4 µM	115	57.3	–
RPMI 5 mM glucose + 10% FBS, 46.1 µM	98.6	62.8	–
RPMI 5 mM glucose + 10% dialyzed FBS, 0.000781 µM	107	104	124
RPMI 5 mM glucose + 10% dialyzed FBS, 0.00234 µM	115	108	121
RPMI 5 mM glucose + 10% dialyzed FBS, 0.00702 µM	110	106	129
RPMI 5 mM glucose + 10% dialyzed FBS, 0.0211 µM	121	107	134
RPMI 5 mM glucose + 10% dialyzed FBS, 0.0632 µM	125	99.1	125
RPMI 5 mM glucose + 10% dialyzed FBS, 0.19 µM	108	108	121
RPMI 5 mM glucose + 10% dialyzed FBS, 0.569 µM	116	98.6	118
RPMI 5 mM glucose + 10% dialyzed FBS, 1.71 µM	115	93.6	114
RPMI 5 mM glucose + 10% dialyzed FBS, 5.12 µM	97.4	72.6	90.3
RPMI 5 mM glucose + 10% dialyzed FBS, 15.4 µM	103	52.8	59.4
RPMI 5 mM glucose + 10% dialyzed FBS, 46.1 µM	107	61.8	72.2

AUC of viability dose-response curve
Conditions	[1]	[2]	[3]
HPLM + 10% dialyzed FBS	461	423	439
RPMI 5 mM glucose + 10% FBS	458	413	421
RPMI 5 mM glucose + 10% dialyzed FBS	464	424	426

CCCN1CCO[C@@H]2c3cc(O)ccc3OC[C@H]21
cell viability [%], HPLM + 10% dialyzed FBS
Conditions	[5]	[6]
0.000781 µM	125	120
0.00234 µM	123	123
0.00702 µM	128	135
0.0211 µM	120	112
0.0632 µM	120	122
0.19 µM	118	118
0.569 µM	113	105
1.71 µM	114	103
5.12 µM	114	68.4
15.4 µM	101	99.7
46.1 µM	12.1	48.1

AUC of viability dose-response curve
Conditions	[1]	[2]	[3]
HPLM + 10% dialyzed FBS	451	448	406
RPMI 5 mM glucose + 10% FBS	456	446	424
RPMI 5 mM glucose + 10% dialyzed FBS	456	441	433
